Data set [1] concerns TREU 667 strain of T. b. brucei. The data set can be described thus: Chronic CNS Model. The format is in vivo, T. b. brucei in mice. The procedure: Mice were infected with 10,000 parasites of the TREU 667 strain of T. b. brucei. Twenty one days post-infection mice were treated with a dose of between 6 and 100 mg/kg of the compound, either BID or QD for 7 days intraperitoneally (IP) or orally (PO). Positive control mice were treated with Diminazene (10 mg/kg, IP) on Day 4 post-infection. Negative control mice were treated with Diminazene (10 mg/kg, PO) on Day 21. Since Diminazene is not able to penetrate the CNS, mice treated at Day 21 are not able to cure the infection. Starting 1 week after the end of treatment, mice are monitored for parasitemia and sacrificed if parasites are detected in the blood. Mice that survive 6 months are considered “cured.”

Data set [2] has as its system bloodstream-form trypanosome T. brucei brucei 427 strain. The data set can be described thus: Trypanosoma brucei brucei high-throughput in vitro drug sensitivity assay (resazurin). The format is cell-based. To be noted: for IC50: Trypanosoma brucei, 72 hrs incubation.
A short description of data set [3]: Kinetic solubility by nephelometric (light scattering) method. The format is physicochemical. The note with it: phosphate buffered saline, aqueous buffer, kinetic from dmso stock, PBS pH 7.4. The procedure:
The kinetic solubilities of compounds were estimated using a nephelometric (light scattering) method. Briefly, compounds were serially diluted in DMSO, followed by dilution in PBS pH 7.4. After incubation, the amount of light scattered by a compound at each concentration was measured. […] At concentrations above the solubility limit, the compound precipitates and the precipitant in the well scatters the light, generating a signal. Higher levels of precipitant in a well scatter more light and produce a stronger signal.
A stock solution of compound (25 mM in DMSO) was prepared, and was serially diluted in DMSO in two-fold increments in a row of a 96 well plate to a lowest concentration of 24 μM. A duplicate plate was prepared by transfer of half of the volume of each well to a new plate. Each well containing DMSO solution of the test compound was then diluted further (1:100) with phosphate buffered saline (pH 7.4) to provide aqueous solutions of compound at the following final concentrations: 250, 125, 62.5, 31.3, 15.6, 7.8, 3.9, 2.0, 1.0, 0.5 and 0.2 μM. All liquid handling stages were performed on a Beckman Coulter Biomek NX Laboratory Automation Workstation. Each compound was diluted and tested in duplicate, providing four separate wells at each test concentration.
The test solutions of compound were incubated at room temperature for 90 minutes and then analyzed using a Thermoskan Ascent nephelometric plate reader. The nephelometer protocol included two steps: first, the plate was shaken for 60 seconds at 1200 rpm, then each well of the plate was read in succession with an 800 ms settling delay between measurements. The total measurement time for a single plate was less than 4 minutes.
The four values (in nephelometric units) obtained for each compound at each concentration were averaged and plotted on a log scale versus concentration.

The nature of data set [4]: L929 cytotoxicity evaluation (resazurin). The format is cell-based. The note with it: mouse, L929 mouse fibroblast cells; 72 hrs incubation; read-out: Cytotox L-929 IC50. In outline:
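Mouse L929 fibroblasts (1×10^4/mL seeding, attached overnight) were treated 72 h at 37 °C, 5% CO2 with serially diluted compounds in DMSO in D-MEM/10% FBS. Viability read by resazurin fluorescence after 3–4 h (ex 544/em 590 nm); IC50 from sigmoidal fits of single data points.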

In data set [5] the test system is Leishmania donovani strain 1S-CL2D axenic amastigotes. The data set can be described thus: Leishmania donovani axenic amastigote in vitro drug sensitivity assay (resazurin). The format is cell-based. To be noted: for IC50: Leishmania donovani, 72 hrs incubation. The procedure:
All experiments were conducted with the axenic amastigote-form of the following parasite: Leishmania donovani strain 1S-CL2D from Sudan, World Health Organization (WHO) designation: (MHOM/SD/62/1 S-CL2D). Parasites were cultured in T-25 vented cap flasks and kept in humidified incubators at 37° C. and 5% CO2. The axenic parasite culture media was RPMI-1640/MES/pH 5.5 formulated and prepared as described by Debrabant et. al. (International Journal for Parasitology 2004, Volume 34, page 205-217). To ensure log growth phase, axenic amastigotes were sub-cultured at appropriate dilutions every 2-3 days.
Cultures of axenic amastigotes growing in the log phase were passed through a 22 gauge blunt needle to break up the clumps, diluted 1:10 in RPMI-1640/MES medium and counted using hemocytometer to determine parasite concentration. Amastigotes were diluted to 2×10^5/mL in RPMI-1640/MES medium to generate a 2-fold working concentration for assay. Compounds to be tested were serially diluted in DMSO and 0.5 μL added to 50 μL HMI-9 in triplicate 96-well plates using a Biomek NX liquid handler. Parasites from the diluted stock were added to each well (50 μL) using a Multidrop 384 dispenser to give a final concentration of 1.0×10^5/ml parasites in 0.5% for DMSO. Amastigotes were incubated with compounds for 72 hrs at 37° C. with 5% CO2. Resazurin (10 μL of 12.5 mg/ml stock) from Sigma-Aldrich was added to each well and plates were incubated for an additional 2-3 hrs. Assay plates were read using an EnVision plate reader at an excitation wavelength of 544 nm and emission of 590 nm. Triplicate data points were averaged to generate sigmoidal dose response curve and determine IC50 values using XLfit curve fitting software from IDBS (Guildford, UK).

≈ marks a conversion by molar mass, not a printed value. Read-outs that look alike come from different tables or passages of the source.

In the case of `N=C(N)c1ccc(/N=N/Nc2ccc(C(=N)N)cc2)cc1` [Diminazene, diminazene, reference compound], the “Day by which all animals relapsed to exhibit blood parasitemia” value in data set [1] (treated on Day 21 (10 mg/kg)) is at most 49 days.
Take `CC1(C)OB(O)c2cc(NC(=O)c3ccc(F)cc3C(F)(F)F)ccc21`: the “mice with absence of blood parasites through Day 84” value in data set [1] (75 mg/kg BID for 7 days, starting at Day 21 post-infection) was 100%.
For the compound `CC1OB(O)c2cc(NC(=O)c3ccccc3C(F)(F)F)ccc21` (stereo not shown) [compound 2, N-(1-Hydroxy-3-methyl-1,3-dihydro-benzo[c][1,2]oxaborol-6-yl)-2-trifluoromethyl-benzamide], the “Selectivity Index (L929 IC50 / T. b. brucei IC50)” value in data set [2] (T. b. brucei vs L929) is given as 7. Moreover, the IC50 in data set [2] (read-out: T. b. brucei IC50) is 233 nM; in data set [2] (read-out: T.b. brucei IC50), 0.078 µg/mL; in data set [5] (read-out: L. donovani axenic amastigotes IC50) it was 830 nM; in data set [5] (read-out: L. donovani axenic amastigotes IC50 (ug/mL)) it was 0.278 µg/mL. The same compound had a solubility at 90 min in data set [3] of 3 µM (≈ 1.01 µg/mL). In addition, the IC50 at 72 h in data set [4] was determined as 0.53 µg/mL (≈ 1.58 µM). For the same compound, the “Selectivity Index (Ld/L929)” value in data set [5] (L. donovani vs L929) turned out to be 2.
